Measured values reported in patent EP4806890A1, “CRYSTALLINE COMPOUND OR BASIC SALT THEREOF, PREPARATION METHOD THEREFOR, AND USE THEREOF” (Abbisko Therapeutics Co., Ltd., priority 2023, dated 2025).
Entries after “also recorded” stand apart in the source; their conditions may differ. Structures can show the parent of a compound that is named as a salt.

Legend:
Format in all cases: physicochemical
[1] = Solubility determination (equilibrium solubility, 24 hrs stirring at room temperature, HPLC); details: for Equilibrium solubility: target concentration 2000 µg/mL, 24 hrs; for pH24 hrs: pH of the filtrate after 24 hrs
Description: (§1) The stability and solubility of the crystalline free form of the compound of formula (I) or the basic salt thereof of the present application were determined by HPLC.
The desired amount of the compound was weighed into a glass vial, and the desired amount of a vehicle was added. A stir bar was added to the vial, and the mixture was stirred at room temperature for 24 hrs. After 24 hrs, the appearance of the sample was observed. An appropriate amount of the sample was filtered through a PVDF 0.45 µm filter membrane, and the filtrate was collected. The pH value of the filtrate was determined, and the sample was diluted with MeOH. The diluted sample was injected into an HPLC system to determine the concentration.

[2] = Hygroscopic behavior test by dynamic vapor sorption (DVS)
Source text: The experimental method of characterizing the crystalline free form of the compound of formula (I) or the basic salt thereof using dynamic vapor sorption (DVS) is as follows: a small amount of the crystalline sample was placed in a precision sample tray that was compatible with the instrument; after the sample was loaded, the sample tray was placed into the instrument for analysis. In this patent, the instruments used for dynamic vapor sorption were all the DVS Intrinsic plus model, and the following experimental parameters were set: nitrogen was used as the carrier gas, a constant temperature of 25 °C was set, the rate of mass percentage change over a unit of time (dm/dt) = 0.002%/min was used as a criterion for determining if equilibrium is reached, and the program humidity change cycle was set to 50-95-0-95-50% RH; within the range of 0-90% RH, a change of 10% RH was taken as a step, and within the range of 90% RH-95% RH, a change of 5% RH was taken as a step.
In the present invention, the hygroscopic weight increases (hygroscopic weight increase/weight before hygroscopy * 100%) of various crystalline forms under various relative humidity conditions were determined using the dynamic vapor sorption method, and the hygroscopicity of different crystalline compounds was evaluated.

[3] = Stability determination (thermal stability and photostability, HPLC purity, appearance, XRPD); details: for XRPD: crystalline form found; for crystalline form transformation (in words): high temperature and light exposure
Description: as §1
An appropriate amount of the sample was placed in a vial and left to stand at 50 °C, 80 °C or 50 °C & 75% RH (open) for 7 days to evaluate thermal stability. An appropriate amount of the sample was placed in a transparent vial, […] evaluation under conditions of overall near-ultraviolet energy of 1.2 * 10^6 Lux·hr and no less than 200 W·hr/m2.

[4] = pH 4.7, 50 mM acetic acid buffer
[5] = pH 6.8, 50 mM phosphoric acid buffer
[6] = Relative humidity 0.0 % at 25 °C
[7] = Relative humidity 10.0 % at 25 °C
[8] = Relative humidity 20.0 % at 25 °C
[9] = Relative humidity 30.0 % at 25 °C
[10] = Relative humidity 40.0 % at 25 °C
[11] = Relative humidity 50.0 % at 25 °C
[12] = Relative humidity 60.0 % at 25 °C
[13] = Relative humidity 70.0 % at 25 °C
[14] = Relative humidity 80.0 % at 25 °C
[15] = 50 °C, 50 °C/75% RH or brown light exposure
[16] = Aluminum foil light exposure control, 9.2 days
[17] = Brown vial light exposure control, 9.2 days
[18] = Transparent light exposure, 9.2 days

`Cc1c(NC(=O)c2cc(C3CC3)c(CN3CCCC[C@H]3C(=O)O)cn2)cccc1-c1cccc(NC(=O)c2cc(C3CC3)c(CN3CCCC[C@H]3C(=O)O)cn2)c1C` [crystalline form A of disodium salt hydrate] [(2S,2'S)-1,1'-(((((2,2'-dimethyl-[1,1'-biphenyl]-3,3'-diyl)bis(azanediyl))bis(carbonyl))bis(4-cyclopropylpyridine-6,3-diyl))bis(methylene))bis(piperidine-2-carboxylic acid)] showed an Equilibrium solubility ([1]; FaSSGF) of 22 µg/mL, an Equilibrium solubility ([1]; FaSSIF) of 303 µg/mL and an Equilibrium solubility ([1]; FeSSIF) of over 2000 µg/mL. It also gave an Equilibrium solubility ([1]; Water, room temperature) of over 2000 µg/mL, an Equilibrium solubility ([1]; pH 1.2, HCl 100 mM) of 1120 µg/mL and an Equilibrium solubility [1, 4] of 25 µg/mL. It also gave an Equilibrium solubility [1, 5] of 34 µg/mL, a pH24 hrs ([1]; FaSSGF) of 1.73 and a pH24 hrs ([1]; FaSSIF) of 6.93. For the same compound, the pH24 hrs ([1]; FeSSIF) was 7.95, the pH24 hrs ([1]; Water) was 9.61 and the pH24 hrs ([1]; pH 1.2, HCl 100 mM) was 1.01. The pH24 hrs [1, 4] was 4.61, the pH24 hrs [1, 5] was 6.88 and the “Hygroscopic weight increase (%)” value [2, 6] was 0.00%. The “Hygroscopic weight increase (%)” value [2, 7] was 2.40%, the “Hygroscopic weight increase (%)” value [2, 8] was 7.45% and the “Hygroscopic weight increase (%)” value [2, 9] was 9.28%. The “Hygroscopic weight increase (%)” value [2, 10] was 10.62%, the “Hygroscopic weight increase (%)” value [2, 11] was 11.64% and the “Hygroscopic weight increase (%)” value [2, 12] was 12.43%. For the same compound, the “Hygroscopic weight increase (%)” value [2, 13] was 13.25%, the “Hygroscopic weight increase (%)” value [2, 14] was 14.59% and the “crystalline form changes after DVS testing” value [2] was “no crystalline form changes”. The weight increased ([2]; at 80% RH) was “more than 10%”, the “physical and chemical stability (in words)” value [3, 15] was “relatively high physical and chemical stability” and the Appearance ([3]; 50 °C, 7 days) was “White powder”. The “Purity (%)” value ([3]; 50 °C, 7 days) was 99.45%, the Appearance ([3]; 50 °C/75%RH, 7 days) was “White powder” and the “Purity (%)” value ([3]; 50 °C/75%RH, 7 days) was 99.46%. The Appearance ([3]; 80 °C, 7 days) was “White powder”, the “Purity (%)” value ([3]; 80 °C, 7 days) was 99.34% and the Appearance [3, 16] was “White powder”. The “Purity (%)” value [3, 16] was 99.51%, the Appearance [3, 17] was “White powder” and the “Purity (%)” value [3, 17] was 99.50%. For the same compound, the Appearance ([3]; Initial, 0 days) was “White powder”, the “Purity (%)” value ([3]; Initial, 0 days) was 99.38% and the Appearance [3, 18] was “White powder”. The “Purity (%)” value [3, 18] was 99.22%, the XRPD ([3]; 50 °C, 7 days) was “Crystalline form A of disodium salt” and the XRPD ([3]; 50 °C/75%RH, 7 days) was “Crystalline form A of disodium salt”. For the same compound, the XRPD ([3]; 80 °C, 7 days) was “Crystalline forms A + B of disodium salt”, the XRPD [3, 16] was “Crystalline form A of disodium salt” and the XRPD [3, 17] was “Crystalline form A of disodium salt”. For the same compound, the XRPD ([3]; Initial, 0 days) was “Crystalline form A of disodium salt”, the XRPD [3, 18] was “Crystalline forms A + B of disodium salt” and the “crystalline form transformation (in words)” value [3] was “underwent crystalline form transformation; also recorded: undergoes crystalline form transformation”. For the same compound, the “chemical stability (in words)” value ([3]; various stability testing conditions, incl. high temperature and light exposure) was “good chemical stability; also recorded: relatively high chemical stability”.
Work on `Cc1c(NC(=O)c2cc(C3CC3)c(CN3CCCC[C@H]3C(=O)O)cn2)cccc1-c1cccc(NC(=O)c2cc(C3CC3)c(CN3CCCC[C@H]3C(=O)O)cn2)c1C` [crystalline form B of disodium salt anhydrate] [(2S,2'S)-1,1'-(((((2,2'-dimethyl-[1,1'-biphenyl]-3,3'-diyl)bis(azanediyl))bis(carbonyl))bis(4-cyclopropylpyridine-6,3-diyl))bis(methylene))bis(piperidine-2-carboxylic acid)] yielded an Equilibrium solubility ([1]; FaSSGF) of 485 µg/mL, an Equilibrium solubility ([1]; FaSSIF) of 474 µg/mL and an Equilibrium solubility ([1]; FeSSIF) of at least 2000 µg/mL. It also gave an Equilibrium solubility ([1]; Water, room temperature) of at least 2000 µg/mL, an Equilibrium solubility ([1]; pH 1.2, HCl 100 mM) of at least 2000 µg/mL and an Equilibrium solubility [1, 4] of 135 µg/mL. It also gave an Equilibrium solubility [1, 5] of 194 µg/mL, a pH24 hrs ([1]; FaSSGF) of 1.72 and a pH24 hrs ([1]; FaSSIF) of 6.93. The pH24 hrs ([1]; FeSSIF) was 6.90, the pH24 hrs ([1]; Water) was 9.96 and the pH24 hrs ([1]; pH 1.2, HCl 100 mM) was 0.95. The pH24 hrs [1, 4] was 4.92, the pH24 hrs [1, 5] was 7.03 and the “solubility (in words)” value ([1]; various pH conditions, buffers and biological medium solutions) was “excellent solubility”. The “physical and chemical stability (in words)” value [3, 15] was “relatively high physical and chemical stability”, the Appearance ([3]; 50 °C, 7 days) was “White powder” and the “Purity (%)” value ([3]; 50 °C, 7 days) was 92.11%. The Appearance ([3]; 50 °C/75%RH, 7 days) was “White powder”, the “Purity (%)” value ([3]; 50 °C/75%RH, 7 days) was 92.97% and the Appearance ([3]; 80 °C, 7 days) was “White powder”. The “Purity (%)” value ([3]; 80 °C, 7 days) was 90.77%, the Appearance [3, 16] was “White powder” and the “Purity (%)” value [3, 16] was 89.50%. For the same compound, the Appearance [3, 17] was “White powder”, the “Purity (%)” value [3, 17] was 88.10% and the Appearance ([3]; Initial, 0 days) was “White powder”. The “Purity (%)” value ([3]; Initial, 0 days) was 91.23%, the Appearance [3, 18] was “White powder” and the “Purity (%)” value [3, 18] was 83.10%. The XRPD ([3]; 50 °C, 7 days) was “Crystalline form B of disodium salt”, the XRPD ([3]; 50 °C/75%RH, 7 days) was “Crystalline form B of disodium salt” and the XRPD ([3]; 80 °C, 7 days) was “Crystalline form B of disodium salt”. For the same compound, the XRPD [3, 16] was “Crystalline form B of disodium salt”, the XRPD [3, 17] was “Crystalline form B of disodium salt” and the XRPD ([3]; Initial, 0 days) was “Crystalline form B of disodium salt”. For the same compound, the XRPD [3, 18] was “Crystalline form B of disodium salt”, the “crystalline form transformation (in words)” value [3] was “no crystalline form transformation was observed” and the “sensitivity to light (in words)” value ([3]; light exposure) was “sensitive to light exposure”. For the same compound, the “physical stability (in words)” value ([3]; stability testing conditions, incl. high temperature and high humidity) was “good physical stability; also recorded: relatively high physical stability”.
For `Cc1c(NC(=O)c2cc(C3CC3)c(CN3CCCC[C@H]3C(=O)O)cn2)cccc1-c1cccc(NC(=O)c2cc(C3CC3)c(CN3CCCC[C@H]3C(=O)O)cn2)c1C` [free-form crystalline form C, (2S,2'S)-1,1'-(((((2,2'-dimethyl-[1,1'-biphenyl]-3,3'-diyl)bis(azanediyl))bis(carbonyl))bis(4-cyclopropylpyridine-6,3-diyl))bis(methylene))bis(piperidine-2-carboxylic acid)], the Equilibrium solubility ([1]; FaSSGF) was 8.9 µg/mL, the Equilibrium solubility ([1]; FaSSIF) was 3.21 µg/mL and the Equilibrium solubility ([1]; FeSSIF) was 5.34 µg/mL. For the same compound, the Equilibrium solubility ([1]; Water, room temperature) was 3.84 µg/mL, the “solubility (in words)” value ([1]; buffer system having a pH of 1.2, compared to the other test conditions) was “improved solubility” and the Equilibrium solubility ([1]; pH 1.2, HCl 100 mM) was 18.92 µg/mL. The Equilibrium solubility [1, 4] was 3.3 µg/mL, the Equilibrium solubility [1, 5] was 2.31 µg/mL and the pH24 hrs ([1]; FaSSGF) was 1.56. The pH24 hrs ([1]; FaSSIF) was 6.41, the pH24 hrs ([1]; FeSSIF) was 4.90 and the pH24 hrs ([1]; Water) was 6.78. For the same compound, the pH24 hrs ([1]; pH 1.2, HCl 100 mM) was 1.30, the pH24 hrs [1, 4] was 4.77 and the pH24 hrs [1, 5] was 6.89. The “hygroscopicity (in words)” value ([2]; DVS, 25 °C) was “moderately hygroscopic; also recorded: moderate hygroscopicity”, the “Hygroscopic weight increase (%)” value [2, 6] was 0.00% and the “Hygroscopic weight increase (%)” value [2, 7] was 0.50%. The “Hygroscopic weight increase (%)” value [2, 8] was 0.75%, the “Hygroscopic weight increase (%)” value [2, 9] was 0.80% and the “Hygroscopic weight increase (%)” value [2, 10] was 1.20%. For the same compound, the “Hygroscopic weight increase (%)” value [2, 11] was 1.35%, the “Hygroscopic weight increase (%)” value [2, 12] was 1.50% and the “Hygroscopic weight increase (%)” value [2, 13] was 1.75%. The “Hygroscopic weight increase (%)” value [2, 14] was 2.21%, the “Hygroscopic weight increase (%)” value ([2]; Relative humidity 90.0 % at 25 °C) was 2.95% and the “crystalline form changes after DVS testing” value [2] was “no crystalline form changes”. The “physical and chemical stability (in words)” value ([3]; 50 °C, 50 °C/75% RH (open), 80 °C for 7 days and photostress for 10 days) was “extremely high physical and chemical stability”, the Appearance ([3]; 50 °C, 7 days) was “White powder” and the “Purity (%)” value ([3]; 50 °C, 7 days) was 98.31%. The Appearance ([3]; 50 °C/75%RH, 7 days) was “White powder”, the “Purity (%)” value ([3]; 50 °C/75%RH, 7 days) was 98.43% and the Appearance ([3]; 80 °C, 7 days) was “White powder”. The “Purity (%)” value ([3]; 80 °C, 7 days) was 97.90%, the Appearance [3, 16] was “White powder” and the “Purity (%)” value [3, 16] was 98.51%. For the same compound, the Appearance ([3]; Initial, 0 days) was “White powder”, the “Purity (%)” value ([3]; Initial, 0 days) was 98.42% and the Appearance [3, 18] was “White powder”. For the same compound, the “Purity (%)” value [3, 18] was 97.91%, the XRPD ([3]; 50 °C, 7 days) was “Free-form crystalline form C” and the XRPD ([3]; 50 °C/75%RH, 7 days) was “Free-form crystalline form C”. The XRPD ([3]; 80 °C, 7 days) was “Free-form crystalline form C”, the XRPD [3, 16] was “Free-form crystalline form C” and the XRPD ([3]; Initial, 0 days) was “Free-form crystalline form C”. The XRPD [3, 18] was “Free-form crystalline form C”.
